These are literature values, as cited in patent publication US20170172145A1, “COMPOSITIONS COMPRISING AN AMIDE” (The Procter & Gamble Company, priority 2015, published 2017).

Molecules are shown by their SMILES.

The pKa is the pH at which an ionisable group is half protonated. For `CCCCCCC(=O)O` [heptanoic acid], the pKa is 5.1. With `OCl` [hypochlorous acid], the pKa is on record as 7.0.

`CCCCCCCCC(=O)O` [nonanoic acid]: the pKa was 5.2. Take `O=C(O)/C=C/c1ccc(O)cc1` [p-coumaric acid]: the pKa is on record as 4.6.
